Results: paper PMC12677607, “Identification of a Pair of Linear or Cyclic Naturally Inspired Bifunctional Lipopeptide Antibiotics That Overcome Antimicrobial Resistance” (Advanced Science, 2025)
Converted amounts (≈) assume the structure as drawn. Bridge positions count the residues as written; N and C are the ends. Square brackets hold non-standard residues; d marks the D form. Peptide text beside a SMILES is read from it. * marks the point of attachment. Octanoyl(3R-OH) = CCCCC[C@@H](O)CC(=O)*; Myristoyl = CCCCCCCCCCCCCC(=O)*; Orn = NCCC[C@H](N)C(=O)O; Dab = NCC[C@H](N)C(=O)O; Dap = NC[C@H](N)C(=O)O

Tests used:
Shigella Castellani LXX = assay: MIC assay (broth micro-dilution); format: cell-based; details: Shigella; Table S11; LB broth, 37 °C, 16 h, n = 2
Procedure: (§1) All MIC assays were performed two independent times (n = 2) in 96‐well plates using a broth micro‐dilution method. The lowest concentration of that inhibited visible microbial growth was recorded as the MIC value.
(§2) For most of bacterial strains, overnight cultures were diluted 5000‐fold in LB broth. For E. faecium and S. aureus, overnight cultures were diluted 1000‐ and 10000‐fold in LB broth, respectively. 100 µL of diluted cells was mixed with 100 µL of LB broth containing each peptide ranging from 64 to 0.125 µg mL^−1 at 2‐fold serial dilutions.

[1] = system: Acinetobacter baumannii 1104008; assay: microbe, parasite or virus in culture; format: cell-based; details: for MIC (μg/mL) A. baumannii 1104008: 1104008, 16 h
Procedure: as §1, §2

[2] = system: Acinetobacter baumannii ATCC 17978; assay: microbe, parasite or virus in culture; format: cell-based; details: Acinetobacter baumannii, ATCC17978; Table S11; LB broth, 37 °C, 16 h, n = 2
Procedure: as §1, §2

[3] = system: Acinetobacter baumannii ATCC 19606; assay: microbe, parasite or virus in culture; format: cell-based; details: Acinetobacter baumannii, ATCC19606; Table S11; LB broth, 37 °C, 16 h, n = 2
Procedure: as §1, §2

[4] = system: Acinetobacter baumannii P53; assay: microbe, parasite or virus in culture; format: cell-based; details: Acinetobacter baumannii, P53; Table S11; LB broth, 37 °C, 16 h, n = 2
Procedure: as §1, §2

[5] = system: Klebsiella pneumoniae ATCC 13883; assay: microbe, parasite or virus in culture; format: cell-based; details: Klebsiella pneumoniae, ATCC13883, 16 h, read-out: MIC Klebsiella pneumoniae ATCC 13883
Procedure: as §1, §2

[6] = system: Klebsiella pneumoniae CRKP 5452; assay: microbe, parasite or virus in culture; format: cell-based; details: for MIC (μg/mL) K. pneumoniae CRKP 5452: CRKP 5452, 16 h
Procedure: as §1, §2

[7] = system: Klebsiella pneumoniae CRKP HS11286; assay: microbe, parasite or virus in culture; format: cell-based; details: Klebsiella pneumoniae, CRKPHS11286, 16 h, read-out: MIC Klebsiella pneumoniae CRKP HS11286
Procedure: as §1, §2

[8] = system: Klebsiella pneumoniae NCTC 5056; assay: microbe, parasite or virus in culture; format: cell-based; details: Klebsiella pneumoniae, NCTC5056, 16 h, read-out: MIC Klebsiella pneumoniae NCTC 5056
Procedure: as §1, §2

[9] = system: Pseudomonas aeruginosa ATCC 9027; assay: microbe, parasite or virus in culture; format: cell-based; details: Pseudomonas aeruginosa, ATCC9027; Table S11; LB broth, 37 °C, 16 h, n = 2
Procedure: as §1, §2

[10] = system: Pseudomonas aeruginosa PAO1; assay: microbe, parasite or virus in culture; format: cell-based; details: Pseudomonas aeruginosa, PAO1; Table S11; LB broth, 37 °C, 16 h, n = 2
Procedure: as §1, §2

[11] = system: Salmonella enterica ATCC 14028; assay: microbe, parasite or virus in culture; format: cell-based; details: Salmonella enterica, ATCC14028, 16 h, read-out: MIC Salmonella enterica ATCC 14028
Procedure: as §1, §2

[12] = system: Salmonella typhimurium LXX; assay: microbe, parasite or virus in culture; format: cell-based; details: Salmonella enterica, TYPHIMURIUM, 16 h, read-out: MIC Salmonella typhimurium LXX
Procedure: as §1, §2

[13] = system: Vibrio alginolyticus XSBZ14; assay: microbe, parasite or virus in culture; format: cell-based; details: Vibrio alginolyticus, XSBZ14, 16 h, read-out: MIC Vibrio alginolyticus XSBZ14
Procedure: as §1, §2

[14] = system: Staphylococcus aureus USA300; assay: microbe, parasite or virus in culture; format: cell-based; details: USA300, 16 h
Procedure: as §1, §2

[15] = system: Streptococcus pyogenes ATCC 19615; assay: microbe, parasite or virus in culture; format: cell-based; details: ATCC 19615, 16 h
Procedure: as §1, §2

[16] = system: Candida albicans ATCC 10231; assay: MIC assay (YPD broth); format: cell-based; details: ATCC 10231, 16 h
Procedure: as §1
For fungal strains, overnight cultures were diluted 2000‐fold in YPD broth. 100 µL of diluted cells was mixed with 100 µL of YPD broth containing each peptide ranging from […] 64 to 0.125 µg mL^−1 at 2‐fold serial dilutions.

HeLa cells = assay: Cytotoxicity assay (CCK-8); format: cell-based, human; details: 48 h
Procedure: The cytotoxicity of each synAQU peptide was assessed using a cell counting kit‐8 (CCK‐8) assay. HeLa cells were first seeded in a 96‐well flat‐bottom microtiter plate with a density of ∼5000 cells per well and incubated in the DMEM medium supplemented with 10% FBS at 37 °C with 5% CO2 for 24 h. […] All cytotoxicity experiments were done in triplicate (n = 3) and repeated two independent times (n = 2).

MIC (μg/mL) A. baumannii 1104008 [1] [µg/mL]	MIC (μg/mL) K. pneumoniae CRKP 5452 [6] [µg/mL]	MIC (μg/mL) S. aureus USA300 [14] [µg/mL]	MIC (μg/mL) S. pyogenes ATCC 19615 [15] [µg/mL]	MIC (μg/mL) C. albicans ATCC 10231 [16] [µg/mL]	SMILES	MIC (Shigella Castellani LXX) [µg/mL]	MIC ([1]; Acinetobacter baumannii, 1104008, Table S11, LB broth, 37 °C, 16 h, n = 2) [µg/mL]	MIC [2] [µg/mL]	MIC [3] [µg/mL]	MIC [4] [µg/mL]	MIC [5] [µg/mL]	MIC ([6]; Klebsiella pneumoniae, CRKP5452, Table S11, LB broth, 37 °C, 16 h, n = 2) [µg/mL]	MIC [7] [µg/mL]	MIC [8] [µg/mL]	MIC [9] [µg/mL]	MIC [10] [µg/mL]	MIC [11] [µg/mL]	MIC [12] [µg/mL]	MIC [13] [µg/mL]	MIC (μg/mL) Hela (HeLa cells) [µg/mL]
					C[C@@H](O)[C@H]1C(=O)N2C(C(=O)O)=C(S[C@@H]3CN[C@H](C(=O)N(C)C)C3)[C@H](C)[C@H]12 [Meropenem, reference compound]	0.125 (≈ 0.326 µM)	16 (≈ 41.7 µM)	0.25 (≈ 0.652 µM)	0.5 (≈ 1.3 µM)	32 (≈ 83.4 µM)	< 0.125	16 (≈ 41.7 µM)	8 (≈ 20.9 µM)	0.125 (≈ 0.326 µM)	0.25 (≈ 0.652 µM)	16 (≈ 41.7 µM)	0.125 (≈ 0.326 µM)	0.125 (≈ 0.326 µM)	< 0.125	
> 64	> 64	> 64	> 64	> 64	CCCCCCCCCCCCCC(=O)N[C@@H](Cc1ccccc1)C(=O)N[C@H]1CCCNC(=O)CNC(=O)[C@H](CCN)NC(=O)[C@@H](Cc2ccc(O)cc2)NC(=O)[C@H](CC(C)C)NC(=O)[C@H]([C@@H](C)CC)NC(=O)[C@@H](C(C)C)NC(=O)[C@H](CCCN)NC1=O [synAQU2-C2] (Myristoyl-F[Orn][Orn][dV]IL[dY][Dab]G; lactam 2-C (inferred))															> 64
> 64	> 64	> 64	> 64	> 64	CCCCCCCCCCCCCC(=O)N[C@@H](Cc1ccccc1)C(=O)N[C@@H](CCCN)C(=O)N[C@@H](CCCN)C(=O)N[C@@H](C(=O)N[C@H](C(=O)N[C@@H](CC(C)C)C(=O)N[C@H](Cc1ccc(O)cc1)C(=O)N[C@@H](CCN)C(=O)NCC(=O)O)[C@@H](C)CC)C(C)C [synAQU2-L] (Myristoyl-F[Orn][Orn][dV]IL[dY][Dab]G-OH)															> 64
> 64	> 64	> 64	> 64	> 64	CCCCC[C@@H](O)CC(=O)N[C@H]1CNC(=O)[C@H](CC(=O)O)NC(=O)[C@H](C(C)C)NC(=O)[C@@H](CC(C)C)NC(=O)[C@H](CN)NC(=O)[C@@H](Cc2ccccc2)NC(=O)[C@H]([C@@H](C)O)NC(=O)[C@H](CCN)NC(=O)[C@H](Cc2ccccc2)NC1=O [synAQU3-C1] ({Octanoyl(3R-OH)}-[Dap]F[Dab]T[dF][Dap][dL]VD; lactam 1-C (inferred))															> 64
